From patent US20250262279A1, “DOSE REGIMEN FOR LONG-ACTING GLP1/GLUCAGON RECEPTOR AGONISTS” (Boehringer Ingelheim International GmbH, priority 2021, published 2025)
Like-named read-outs stand apart in the source and are kept apart here.

Assay: Example 1: plasma pharmacokinetics
Assay type: in vivo
Settings: human, sc; for Cmax: read-out: Cmax (gMean)

SMILES: CC[C@H](C)[C@H](NC(=O)[C@H](Cc1ccccc1)NC(=O)[C@H](CC(=O)O)NC(=O)[C@H](CCCCN)NC(=O)[C@H](C)NC(=O)[C@H](C)NC(=O)[C@H](CCCNC(=N)N)NC(=O)[C@H](CCC(=O)O)NC(=O)[C@H](CC(=O)O)NC(=O)[C@H](CC(C)C)NC(=O)[C@H](Cc1ccc(O)cc1)NC(=O)[C@H](CCCCN)NC(=O)[C@H](CO)NC(=O)[C@H](Cc1ccc(O)cc1)NC(=O)[C@H](CC(=O)O)NC(=O)[C@H](CO)NC(=O)[C@@H](NC(=O)[C@H](Cc1ccccc1)NC(=O)[C@@H](NC(=O)CNC(=O)[C@H](CCC(N)=O)NC(=O)C1(NC(=O)[C@@H](N)Cc2c[nH]cn2)CCC1)[C@@H](C)O)[C@@H](C)O)C(=O)N[C@@H](CCCCNC(=O)CNC(=O)CNC(=O)[C@H](CO)NC(=O)CNC(=O)[C@H](CO)NC(=O)CNC(=O)CC[C@H](NC(=O)CCCCCCCCCCCCCCCCC(=O)O)C(=O)O)C(=O)N[C@@H](Cc1c[nH]c2ccccc12)C(=O)N[C@@H](CC(C)C)C(=O)N[C@@H](CCC(=O)O)C(=O)N[C@@H](CO)C(=O)N[C@@H](C)C(N)=O [Compound I]
- AUC(0-t) (1.2 mg, Ex.1 weekly scheme 4, wk 5, 1.2 mg sc, read-out: AUC0-168 (gMean)): 3.94 µM·h
- Cmax (1.2 mg, Ex.1 weekly scheme 4, wk 5, 1.2 mg sc): 36 nM
- AUC(0-t) (1.2 mg, Ex.1 weekly scheme 4, wk 6, 1.2 mg sc, read-out: AUC0-168 (gMean)): 4.7 µM·h
- Cmax (1.2 mg, Ex.1 weekly scheme 4, wk 6, 1.2 mg sc): 41.9 nM
- AUC(0-t) (1.2 mg, Ex.1 weekly scheme 4, wk 7, 1.2 mg sc, read-out: AUC0-168 (gMean)): 5.19 µM·h
- Cmax (1.2 mg, Ex.1 weekly scheme 4, wk 7, 1.2 mg sc): 49 nM
- AUC(0-t) (1.2 mg, Ex.1 weekly scheme 5, wk 3, 1.2 mg sc, read-out: AUC0-168 (gMean)): 3.79 µM·h
- Cmax (1.2 mg, Ex.1 weekly scheme 5, wk 3, 1.2 mg sc): 31.5 nM
- AUC(0-t) (1.5 mg, Ex.1 twice weekly scheme, wk 9, 1.5 mg sc, read-out: AUC0-72 (gMean)): 5 µM·h
- Cmax (1.5 mg, Ex.1 twice weekly scheme, wk 9, 1.5 mg sc): 78.3 nM
- AUC(0-t) (1.5 mg, Ex.1 weekly scheme 1, wk 5, 1.5 mg sc, read-out: AUC0-168 (gMean)): 4.49 µM·h
- Cmax (1.5 mg, Ex.1 weekly scheme 1, wk 5, 1.5 mg sc): 37.8 nM
- AUC(0-t) (1.6 mg, Ex.1 weekly scheme 2, wk 4, 1.6 mg sc, read-out: AUC0-168 (gMean)): 5.13 µM·h
- Cmax (1.6 mg, Ex.1 weekly scheme 2, wk 4, 1.6 mg sc): 44.3 nM
- AUC(0-t) (1.8 mg, Ex.1 twice weekly scheme, wk 11, 1.8 mg sc, read-out: AUC0-72 (gMean)): 5.69 µM·h
- Cmax (1.8 mg, Ex.1 twice weekly scheme, wk 11, 1.8 mg sc): 93.6 nM
- AUC(0-t) (1.8 mg, Ex.1 weekly scheme 1, wk 6, 1.8 mg sc, read-out: AUC0-168 (gMean)): 5.53 µM·h
- Cmax (1.8 mg, Ex.1 weekly scheme 1, wk 6, 1.8 mg sc): 45.5 nM
- AUC(0-t) (1.8 mg, Ex.1 weekly scheme 3, wk 4, 1.8 mg sc, read-out: AUC0-168 (gMean)): 5.2 µM·h
- Cmax (1.8 mg, Ex.1 weekly scheme 3, wk 4, 1.8 mg sc): 46.5 nM
- AUC(0-t) (1.8 mg, Ex.1 weekly scheme 4, wk 11, 1.8 mg sc, read-out: AUC0-168 (gMean)): 8.16 µM·h
- Cmax (1.8 mg, Ex.1 weekly scheme 4, wk 11, 1.8 mg sc): 69.9 nM
- AUC(0-t) (1.8 mg, Ex.1 weekly scheme 4, wk 19, 1.8 mg sc, read-out: AUC0-168 (gMean)): 6.66 µM·h
- Cmax (1.8 mg, Ex.1 weekly scheme 4, wk 19, 1.8 mg sc): 60.2 nM
- AUC(0-t) (1.8 mg, Ex.1 weekly scheme 5, wk 5, 1.8 mg sc, read-out: AUC0-168 (gMean)): 6.08 µM·h
- Cmax (1.8 mg, Ex.1 weekly scheme 5, wk 5, 1.8 mg sc): 57.9 nM
- AUC(0-t) (1.8 mg, Ex.1 weekly scheme 5, wk 6, 1.8 mg sc, read-out: AUC0-168 (gMean)): 6.77 µM·h
- Cmax (1.8 mg, Ex.1 weekly scheme 5, wk 6, 1.8 mg sc): 63.3 nM
- AUC(0-t) (2 mg, Ex.1 weekly scheme 2, wk 5, 2.0 mg sc, read-out: AUC0-168 (gMean)): 6.55 µM·h
- Cmax (2 mg, Ex.1 weekly scheme 2, wk 5, 2.0 mg sc): 57.7 nM
- AUC(0-t) (2.1 mg, Ex.1 twice weekly scheme, wk 13, 2.1 mg sc, read-out: AUC0-72 (gMean)): 6.7 µM·h
- Cmax (2.1 mg, Ex.1 twice weekly scheme, wk 13, 2.1 mg sc): 108 nM
- AUC(0-t) (2.4 mg, Ex.1 twice weekly scheme, wk 15, 2.4 mg sc, read-out: AUC0-72 (gMean)): 7.62 µM·h
- Cmax (2.4 mg, Ex.1 twice weekly scheme, wk 15, 2.4 mg sc): 132 nM
- AUC(0-t) (2.4 mg, Ex.1 twice weekly scheme, wk 16, 2.4 mg sc, read-out: AUC0-72 (gMean)): 8.55 µM·h
- Cmax (2.4 mg, Ex.1 twice weekly scheme, wk 16, 2.4 mg sc): 142 nM
- AUC(0-t) (2.4 mg, Ex.1 weekly scheme 2, wk 6, 2.4 mg sc, read-out: AUC0-168 (gMean)): 8.19 µM·h
- Cmax (2.4 mg, Ex.1 weekly scheme 2, wk 6, 2.4 mg sc): 70.6 nM
- AUC(0-t) (2.4 mg, Ex.1 weekly scheme 3, wk 5, 2.4 mg sc, read-out: AUC0-168 (gMean)): 7.19 µM·h
- Cmax (2.4 mg, Ex.1 weekly scheme 3, wk 5, 2.4 mg sc): 63 nM
- AUC(0-t) (2.4 mg, Ex.1 weekly scheme 4, wk 13, 2.4 mg sc, read-out: AUC0-168 (gMean)): 10.3 µM·h
- Cmax (2.4 mg, Ex.1 weekly scheme 4, wk 13, 2.4 mg sc): 88.3 nM
- AUC(0-t) (2.4 mg, Ex.1 weekly scheme 4, wk 15, 2.4 mg sc, read-out: AUC0-168 (gMean)): 10.9 µM·h
- Cmax (2.4 mg, Ex.1 weekly scheme 4, wk 15, 2.4 mg sc): 87.1 nM
- AUC(0-t) (2.4 mg, Ex.1 weekly scheme 4, wk 16, 2.4 mg sc, read-out: AUC0-168 (gMean)): 11.5 µM·h
- Cmax (2.4 mg, Ex.1 weekly scheme 4, wk 16, 2.4 mg sc): 97.3 nM
- AUC(0-t) (2.4 mg, Ex.1 weekly scheme 5, wk 7, 2.4 mg sc, read-out: AUC0-168 (gMean)): 9.08 µM·h
- Cmax (2.4 mg, Ex.1 weekly scheme 5, wk 7, 2.4 mg sc): 77.8 nM
- AUC(0-t) (3 mg, Ex.1 weekly scheme 3, wk 6, 3.0 mg sc, read-out: AUC0-168 (gMean)): 10.4 µM·h
- Cmax (3 mg, Ex.1 weekly scheme 3, wk 6, 3.0 mg sc): 88.7 nM
- AUC(0-t) (3 mg, Ex.1 weekly scheme 5, wk 9, 3.0 mg sc, read-out: AUC0-168 (gMean)): 11.3 µM·h
- Cmax (3 mg, Ex.1 weekly scheme 5, wk 9, 3.0 mg sc): 102 nM
- AUC(0-t) (3.6 mg, Ex.1 weekly scheme 5, wk 11, 3.6 mg sc, read-out: AUC0-168 (gMean)): 14.2 µM·h
- Cmax (3.6 mg, Ex.1 weekly scheme 5, wk 11, 3.6 mg sc): 129 nM
- AUC(0-t) (4.2 mg, Ex.1 weekly scheme 5, wk 13, 4.2 mg sc, read-out: AUC0-168 (gMean)): 15.9 µM·h
- Cmax (4.2 mg, Ex.1 weekly scheme 5, wk 13, 4.2 mg sc): 134 nM
- AUC(0-t) (4.8 mg, Ex.1 weekly scheme 5, wk 15, 4.8 mg sc, read-out: AUC0-168 (gMean)): 18.7 µM·h
- Cmax (4.8 mg, Ex.1 weekly scheme 5, wk 15, 4.8 mg sc): 161 nM
- AUC(0-t) (4.8 mg, Ex.1 weekly scheme 5, wk 16, 4.8 mg sc, read-out: AUC0-168 (gMean)): 19.7 µM·h
- Cmax (4.8 mg, Ex.1 weekly scheme 5, wk 16, 4.8 mg sc): 193 nM
